Calls of active or inactive are those of the source. No cut-off for these calls is given here.
Legend:
Cytochrome P450 2C9 = Cytochrome P450 2C9 (Homo sapiens, UniProt P11712); assay: Inhibition of CYP2C9; assay type: ADME
Plasma = assay: Fraction unbound in human plasma; assay type: ADME, cell-free
Cytochrome P450 2D6 = Cytochrome P450 2D6 (Homo sapiens, UniProt P10635); assay: Inhibition of CYP2D6; assay type: ADME
[1] = Ratio of AUC in brain to AUC in blood in Sprague-Dawley rat at 10 mg/kg, po after 90 mins; assay type: ADME, organism-based; parameters: dose 10 mg/kg, route oral; conditions: read-out: BPR
[2] = Half life in rat 1 mg/kg, iv and 10 mg/kg, po; assay type: ADME, organism-based; conditions: in vivo
[3] = AUC in rat at 10 mg/kg, po; assay type: ADME, organism-based; parameters: dose 10 mg/kg, route oral; conditions: plasma
[4] = Plasma concentration in Sprague-Dawley rat at 10 mg/kg, po after 90 mins; assay type: ADME, organism-based; parameters: dose 10 mg/kg, route oral
[5] = Potentiation of NMDA receptor-induced current in hippocampal CA1 pyramidal cells at 30 uM; assay type: tissue-based; conditions: Hippocampus
[6] = Volume of distribution at steady state in rat 1 mg/kg, iv and 10 mg/kg, po; assay type: ADME, organism-based; conditions: in vivo, read-out: Vdss

Chain of Cytochrome P450 2C9 (P11712 whole entry): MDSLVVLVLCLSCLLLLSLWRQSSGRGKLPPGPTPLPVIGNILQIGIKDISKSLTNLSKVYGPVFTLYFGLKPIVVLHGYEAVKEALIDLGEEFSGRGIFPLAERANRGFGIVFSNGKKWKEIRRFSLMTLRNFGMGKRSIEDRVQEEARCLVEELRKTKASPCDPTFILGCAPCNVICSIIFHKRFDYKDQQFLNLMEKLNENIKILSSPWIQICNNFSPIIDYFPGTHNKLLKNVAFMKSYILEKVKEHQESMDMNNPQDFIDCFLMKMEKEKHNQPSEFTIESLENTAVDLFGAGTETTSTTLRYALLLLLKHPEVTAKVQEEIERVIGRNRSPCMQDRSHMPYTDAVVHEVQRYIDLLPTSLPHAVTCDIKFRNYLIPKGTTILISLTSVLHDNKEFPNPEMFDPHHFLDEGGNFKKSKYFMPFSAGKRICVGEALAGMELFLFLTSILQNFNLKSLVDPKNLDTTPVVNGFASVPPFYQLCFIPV
Chain of Cytochrome P450 2D6 (P10635 whole entry): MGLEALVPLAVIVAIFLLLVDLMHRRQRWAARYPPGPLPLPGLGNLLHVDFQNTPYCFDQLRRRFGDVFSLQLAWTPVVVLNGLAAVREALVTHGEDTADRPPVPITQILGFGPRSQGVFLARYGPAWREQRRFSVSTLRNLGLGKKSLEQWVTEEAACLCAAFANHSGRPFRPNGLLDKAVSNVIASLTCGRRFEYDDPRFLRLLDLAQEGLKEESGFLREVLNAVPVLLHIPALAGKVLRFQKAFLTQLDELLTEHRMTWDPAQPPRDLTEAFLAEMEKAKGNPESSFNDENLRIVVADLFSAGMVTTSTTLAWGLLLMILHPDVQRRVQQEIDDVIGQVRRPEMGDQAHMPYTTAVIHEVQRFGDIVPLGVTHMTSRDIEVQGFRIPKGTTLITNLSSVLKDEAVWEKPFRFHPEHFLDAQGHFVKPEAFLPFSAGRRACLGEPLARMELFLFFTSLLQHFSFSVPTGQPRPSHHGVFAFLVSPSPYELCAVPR

CCOC(=O)N1CCC(N2CCC[C@@H](NC(=O)c3ccccc3C)C2)CC1
IC50 (Cytochrome P450 2C9): > 25 µM
Fu (Plasma): 5.8%
IC50 (Cytochrome P450 2D6): > 25 µM
Kp at 1.5 h [1]: 1.35
half-life [2]: 46 min
AUC [3]: 4200 ng·h/mL
concentration at 1.5 h [4]: 1450 nM
Activity [5]: Active
Vd [6]: 0.98 L/kg

Source: ChEMBL document CHEMBL1914417 (Bioorg Med Chem Lett, 2011)
